Structures can show the parent of a compound that is named as a salt.
Legend:
Format in all cases: physicochemical
[1] = HPLC assay of lactone ring hydrolysis, free in PBS or associated with liposomes or micelles; conditions: for carboxylate/lactone ratio (C/L) free drug: final equilibrium; for carboxylate/lactone ratio (C/L) free drug / t1/2 free drug: free in PBS, pH 7.4, 37° C.; for t1/2 free drug: lactone hydrolysis
Experimental: A high performance liquid chromatography assay was used to determine the rate of hydrolysis of camptothecin and topotecan free in aqueous solution and to compare such rates with the rate of hydrolysis for the same drugs when bound to the DMPG and DMPC liposome membranes. The assay was conducted under near physiological conditions; the pH was 7.4, the temperature was 37° C. and the ionic strength was physiological. A Spectroflow model 980 fluorescence detector coupled to an HP 3392A integrator which acquired and processed the chromatograms, was used. For camptothecin, an Ultrasphere ODS C-18 250 mm long column was used. The mobile phase consisted of 32% acetonitrile, 67% 0.1M acetate buffer, pH 5.5, and 1% 01.M sodium dodecylsulfate at a flow rate of 1 mL/min. The detector was set to 370 nm excitation wavelength and a 418 nm long pass emission filter. A 1 μM solution of camptothecin in PBS was prepared and incubated at 37° C. Immediately after mixing the drug stock solution with PBS and at intervals of 5 min thereafter, 50 μL aliquots were taken out and mixed with 150 μL methanolic internal standard, 9-toluoylamidocamptothecin and either analyzed immediately or kept cold under dry ice. 150 μL of this mixture was diluted with 125 μL water and 200 μL was injected. The ratio of the peak areas corresponding to the intact lactone form of the camptothecin drug and the internal standard at a particular time was normalized to that at the time of mixing and was considered as the concentration of the intact lactone form.
For topotecan the excitation wavelength was 362 nm and the emission was observed through a 470 long wave pass filter. The stationary phase was Waters Nova-Pak C-18 150mm long column. The mobile phase consisted of 500 mL 0.1M KH2 PO4, 550 mL acetonitrile, 4.2 mL triethylamine (distilled over molecular sieves), 4.44 g sodium dioctylsulfosuccinate (DOSS), and 970 ml water. The pH was adjusted to 6.0 with H3 PO4. Internal standard solution contained 50×10^-9 g acridine from Eastman and 20×10^-3 M DOSS in methanol and was always kept cold at ≤-20° C. Next 150 μL or cold internal standard solution was mixed with 50 μL aliquot containing topotecan, centrifuged for 1 minute and the supernatant was either analyzed immediately or stored at -20° C. for analysis at a later time, within 2 hours. Samples were monitored at time points from 0 minutes, that is, immediately following dissolution, up to 72 hours.
The kinetics of lactone ring hydrolysis for free camptothecin, CMC and topotecan are shown in of FIGS. 7a, 7b and 7c. Analysis of the decay profile for camptothecin, CMC and topotecan free in PBS was accomplished using a nonlinear least squares program.

[2] = Steady-state fluorescence anisotropy in solvents and liposomes; conditions: for steady-state anisotropy (a), DMPC: DMPC liposomes
Experimental: (§1) Steady-state fluorescence measurements were obtained on a SLM Model 4800C. spectrofluorometer with a thermostated cuvette compartment. This instrument was interfaced with an IBM PS/2 model 55 SX computer. Excitation and emission spectra were recorded with an excitation resolution of 8 nm and an emission resolution of 4 nm. In all cases spectra were corrected for background fluorescence and scatter from unlabeled lipids or from solvents by subtraction of the spectrum of a blank. Steady-state fluorescence intensity measurements were made in the absence of polarizer. Steady-state anisotropy (a) measurements were determined with the instrument in the "T-format" for simultaneous measurement of two polarized intensities. The alignment of polarizers were checked routinely using a dilute suspension of 0.25 μm polystyrene microspheres from Polysciences, Inc, Warrington, Pa., in water; anisotropy values of >0.99 were obtained. The anisotropy was calculated from a=(Ivv -GlVH)/(Ivv +GIVH), where G-IVH /IHH and the subscripts refer to vertical and horizontal orientations of the excitation and emission polarizers, respectively.
(§2) Anisotropy measurements for camptothecin, camptothecin carboxylate sodium salt, and 10,11-methylenedioxycamptothecin were conducted using exciting light of 370 nm and 420 nm long wave pass filters on each emission channel in order to isolate the fluorescence signal from background scatter and signal. For topotecan a 400 nm excitation wavelength and a 500 nm emission filter were used and for 9-aminocamptothecin a 375 nm excitation and a wavelength 420 nm emission filter were used. For AMC and CMC, a 370 nm excitation wavelength and a 400 nm emission filter were used. For 10-hydroxycamptothecin 375 nm excitation wavelength 500 nm emission filter was used. Emission filters were obtained from Oriel Corp. Stamford, Conn. The combination of exciting light and emission filters allows one to adequately separate the fluorescence from the background signal. The contribution of background fluorescence, together with scattered light, was typically less than 1% of the total intensity. Since the lactone ring of the camptothecin drug undergoes hydrolysis in aqueous medium, all measurements were completed within the shortest possible time, less than 1 minute after mixing the drug stock solution with PBS or the liposomes. In each case, analysis was initiated immediately after mixing the drug stock solution with PBS or with the liposomes. All measurements were performed at 37° C. unless otherwise noted.
(§3) While the spectral changes provide qualitative evidence that the camptothecin drugs bind the liposome membranes, fluorescence anisotropy titration, offers the most sensitive means for quantitatively assessing the extent of the binding. The fluorescence anisotropy titration was performed according to the method of Burke and Tritton, Biochemistry 24: 1768-1776 (1985).
A steady-state fluorescence anisotropy (a) measurement is related to the rotational rate of the fluorescent molecule through the Perrin Equation: […]
where a0 is the limiting fluorescence anisotropy value, that is, the anisotropy value in the absence of depolarizing rotations, T is the excited-state lifetime, and .phi. is the rotational correlative time of the fluorophore. According to Equation 1, changes in either the T or .phi. values of a fluorescent compound can modulate its steady-state anisotropy.
The limiting fluorescence anisotropy (a0) values were also measured. The maximum values of (a) were obtained by dissolving the camptothecin drugs in the viscous solvent glycerol and cooling the samples to low temperatures. Steady-stated anisotropy (a) values were determined for samples containing 1 μM drug at 37° C.
Where the solvent viscosity is high and temperature is low, depolarizing rotations are at a minimum. By extrapolating these (a) values to -25° C., the limiting anisotropy values (a0) for the camptothecin drugs, were determined. […]

[3] = Fluorescence excitation and emission spectra of camptothecin drugs free in solution and bound to liposomes
Description: The camptothecin drugs are intrinsically intensely fluorescent. Fluorescence is associated with the extended conjugation of the quinoline ring system. The liposomes of Examples 1-7 were characterized for the presence of the camptothecin drugs, using excitation and emission spectrography, and fluorescence anisotropy.
as §1, §2
The relative fluorescence intensity of 1×10^-6 M of camptothecin free in PBS buffer at 37° C. is shown. The emission spectra of the camptothecin was recorded using exciting light of 370 nm.
An exciting light of 390 nm was used to record the emission spectra of topotecan. A decrease in the emission intensity is observed for topotecan associated with the DMPG liposome.
All spectra were recorded using camptothecin drug concentrations of 2
μM. The DMPC and DMPG concentrations were 0.29 M. Experiments were
conducted in PBS buffer at 37° C.
Also found in Table II is a relative index of the emission intensity levels from these camptothecin drugs in PBS at their respective excitation and emission λMAX.

[4] = Overall association constant by fluorescence anisotropy titration, DMPC liposomes
Experimental: as §3
The concentrations of free camptothecin drugs and camptothecin drugs associated with liposomes were determined at various lipid concentrations. All experiments were conducted in glass tubes pretreated with a silating agent, Surfacil, from Pearce Chemical, Rockford, Ill. The titration was conducted at camptothecin drug concentration of 1×10^-6 M in PBS at 37° C. Anisotropy values at each lipid concentration were determined within less than 30 seconds following the addition of the camptothecin drugs to the liposome suspension. The (a) values were determined for fixed drug concentration, typically 2 μM, while the lipid concentration was varied from 0 to 0.29M. By varying the lipid concentration rather than varying the drug concentration, the problem of self-association phenomenon which occurs for camptothecin drugs concentrations in excess of 10 μM is avoided. Also, the well-known phenomenon known as inner filter effect which occurs using fluorescent material at high optical densities is a is avoided.
Adsorption isotherms like those shown in FIGS. 4A and 4B were used to determine overall association constants for the camptothecin drugs. Overall association constants are defined as: […]
where [AB ] represents the concentration of the camptothecin drug bound to the vesicle membrane, [AF ] represents the concentration of free drug, and [L] represents the total lipid concentration in the liposome suspension. This equation is valid when the concentration of free lipid is approximately equal to the concentration of total lipid, that is, the concentration of free lipid is in great excess over the concentration of bound drug. Provided this concentration is satisfied, K may be determined from the inverse of the slope of a double reciprocal plot according to (Burke and Tritton, Biochemistry 24:1776, 1985). In such a plot, 1/bound fraction of the total camptothecin drug is plotted vs. 1/[lipid], with a y-intercept value of 1.
FIG. 6A is the double-reciprocal plot for the associations of CMC, camptothecin, camptothecin carboylate sodium salt and topotecan with DMPC at 37° C.
The stabilization of camptothecin drugs was determined using different lipids. Three types of lipids (and thus 3 types of membranes) were examined: fluid-phase and electroneutral L-α-dimyristoylphosphatidylcholine (DMPC); fluid-phase and negatively-charged L-α-dimyristoylphosphatidylglycerol (DMPG), and solid-phase and electroneutral L-α-distearoylphosphatidylcholine (DSPC). While DMPC and DMPG have identical chain length, the charge on their head groups differ. DMPC and DSPC have identical head groups, but DMPC has acyl chains having 14 carbons per chain, which are four carbons shorter than the DSPC, which has 18 carbons per chain. This difference of 4-carbon chain length results in DMPC being fluid-phase at 37° C. while DSPC is solid-phase. The 7 camptothecin drugs listed in Table III were combined with liposomes containing the above lipids.
FIGS. 4A and 4B show the extent of camptothecin drug binding to liposomes as a function of lipid concentration for DMPC and DMPG liposomes. DMPC liposomes were made as in Example 1, at lipid concentrations from 0 to 0.29M, using CMC, 10-hydroxycamptothecin, 10,11-methylenedioxy-camptothecin, topotecan, camptothecin, and camptothecin carboxylate sodium salt, as shown in FIG. 4B. DMPG liposomes were made as in Example 2, at lipid concentrations from 0 to 0.29M, using 9-chloro-10,11-methylenedioxycamptothecin CMC, 10,11-methylenedioxycamptothecin, camptothecin, and topotecan, 9-aminocamptothecin, as shown in FIG. 4A. […]

[5] = in PBS, pH 7.4, at excitation and emission λMAX

## CCC1(O)C(=O)OCc2c1cc1n(c2=O)Cc2cc3c(N)c4c(cc3nc2-1)OCO4 (centres unmarked) [9-amino-10,11-methylenedioxycamptothecin]
[1]; DMPC and DMPG liposomes
  lactone hydrolysis when associated with liposomes: some hydrolysis occurred at 1 hour
[1]; DMPG or DMPC liposomes, 5 hours
  lactone ring hydrolysis at 5 hours: ≤ 40%
[1]
  carboxylate/lactone ratio (C/L) free drug: 5.1
  t1/2 free drug: 26.9 min
[2]; pH 2, 37° C.
  steady-state anisotropy (a), DMPC: 0.160
[2]; pH 3, 37° C.
  steady-state anisotropy (a), PBS: 0.049
[3]; 2 μM, excitation 370 nm, decreased pH
  emission maxima as the pH is decreased: 430 nm
[3]; free in PBS
  shift of emission maxima upon decrease of pH / protonation: about 120 nm
[3]; free in PBS, pH 7.4, 37° C.
  λMAX emission, PBS: 550 nm
[3]; [5]
  Relative Fluorescence: 0.001
[3]; pH 1.5
  λMAX excitation: 373 nm
[3]; pH 1.5, PBS
  Relative Fluorescence: 0.06
[3]; pH 1.5, free in PBS
  λMAX emission, PBS: 430 nm
[3]; pH 7.4, 2 μM drug, PBS, 37° C.
  λMAX excitation: 404 nm

## CCC(O)(C(=O)O)c1cc2n(c(=O)c1CO)Cc1cc3ccccc3nc1-2 (centres unmarked) [camptothecin carboxylate, camptothecin carboxylate sodium salt]
[2]; 37° C., 1/a vs. 1/[lipid] plot
  steady-state anisotropy (a), DMPC: 0.102
[2]; 1 μM drug, 37° C.
  steady-state anisotropy (a), PBS: 0.008
[2]; extrapolated to -25° C., glycerol
  limiting fluorescence anisotropy a0: 0.377
[2]; glycerol, 1 μM drug, 37° C.
  steady-state anisotropy (a), glycerol: 0.327
[2]; octanol, 1 μM drug, 37° C.
  steady-state anisotropy (a), octanol: 0.073
[3]; DMPC liposomes 0.29 M, pH 7.4, 37° C.
  λMAX emission, DMPC: 437 nm
[3]; DMPG liposomes 0.29 M, pH 7.4, 37° C.
  λMAX emission, DMPG: 435 nm
[3]; free in PBS, pH 7.4, 37° C.
  λMAX emission, PBS: 443 nm
[3]; [5]
  Relative Fluorescence: 1
[3]; pH 7.4, 2 μM drug, PBS, 37° C.
  λMAX excitation: 377 nm
[4]; DMPC (electroneutral, fluid phase), PBS, 37° C.
  overall association constant K, DMPC: 40 M⁻¹
[4]; relative to camptothecin
  reduction in binding to DMPC liposomes upon hydrolysis to carboxylate: three-fold reduction

## CCC1(O)C(=O)OCc2c1cc1n(c2=O)Cc2cc3c([N+](=O)[O-])cccc3nc2-1 (centres unmarked) [9-nitrocamptothecin]
[1]
  carboxylate/lactone ratio (C/L) free drug: 7.5
  t1/2 free drug: 23.8 min
[3]; free in PBS, pH 7.4
  reduction in emission intensity levels relative to camptothecin: 1000 -fold
[3]; free in PBS, pH 7.4, 37° C.
  λMAX emission, PBS: 456 nm
[3]; [5]
  Relative Fluorescence: 0.001
[3]; pH 7.4, 2 μM drug, PBS, 37° C.
  λMAX excitation: 378 nm
